Measurements reported in patent US7341730B1, “Inhibitors of angiogenesis and tumor growth” (University of Southern California, priority 1998, dated 2008).
No end group written: not given here.

B1: Saposin A: sphingolipid-binding glycoprotein derived from Prosaposin, recombinant (protein, UniProt P07602 60-142, looked up)
Saposin-A: SLPCDICKDVVTAAGDMLKDNATEEEILVYLEKTCDWLPKPNMSASCKEIVDSYLPVILDIIKGEMSRPGEVCSALNLCESLQ
modifications: Saposin-A
B2: Saposin C: sphingolipid-binding glycoprotein derived from Prosaposin, recombinant (protein, UniProt P07602 311-390, looked up)
Saposin-C: SDVYCEVCEFLVKEVTKLIDNNKTEKEILDAFDKMCSKLPKSLSEECQEVVDTYGSSILSILLEEVSPELVCSMLHLCSG
modifications: Saposin-C
B3: Prosaposin: 70 kD glycoprotein, precursor of Saposin A, B, C and D; naturally occurring full-length (protein, listed as Homo sapiens)
chain: MYALFLLASLLGAALAGPVLGLKECTRGSAVWCQNVKTASDCGAVKHCLQTVWNKPTVKSLPCDICKDVVTAAGDMLKDNATEEEILVYLEKTCDWLPKPNMSASCKEIVDSYLPVILDIIKGEMSRPGEVCSALNLCESLQKHLAELNHQKQLESNKIPELDMTEVVAPFMANIPLLLYPQDGPRSKPQPKDNGDVCQDCIQMVTDIQTAVRTNSTFVQALVEHVKEECDRLGPGMADICKNYISQYSEIAIQMMMHMQPKEICALVGFCDEVKEMPMQTLVPAKVASKNVIPALELVEPIKKHEVPAKSDVYCEVCEFLVKEVTKLIDNNKTEKEILDAFDKMCSKLPKSLSEECQEVVDTYGSSILSILLEEVSPELVCSMLHLCSGTRLPALTVHVTQPKDGGFCEVCKKLVGYLDRNLEKNSTKQEILAALEKGCSFLPDPYQKQCDQFVAEYEPVLIEILVEVMDPSFVCLKIGACPSAHKPLLGTEKCIWGPSYWCQNTETAAQCNAVEHCKRHVWN
modifications: prosaposin
notes: 70 kD glycoprotein, precursor of Saposin A, B, C and D; naturally occurring full-length
B4: Saposin D: sphingolipid-binding glycoprotein derived from Prosaposin, recombinant (protein, UniProt P07602 405-486, looked up)
Saposin-D: DGGFCEVCKKLVGYLDRNLEKNSTKQEILAALEKGCSFLPDPYQKQCDQFVAEYEPVLIEILVEVMDPSFVCLKIGACPSAH
modifications: Saposin-D

Experiments:
Type in all cases: cell-based
[1] = test system: KS Y-1 cells; test: KS Y-1 cell proliferation assay (MTT); conditions: concentration not given
Procedure: (§1) To determine if Saposin B polypeptides had anti-angiogenic activity, a series of overlapping polypeptides were synthesized and tested in the KS Y-1 cell proliferation assay. The overlapping polypeptides are SEQ ID NOs:13 though 43. Cell Proliferation assays in either KS cells or fibroblast. Cells were plated in 48 well plates at equal numbers in appropriate culture medium. Cells were treated with the test compounds at various concentrations on day one, and on day 3. MTT was done on day 5. KS cells were used to represent the activated endothelial cells, while fibroblast cells represent the control cells. The results are remarkable for the lack of toxicity to the fibroblast relative to the activated endothelial cells/KS cells.

[2] = test system: fibroblast cells (T1); test: Fibroblast proliferation assay (MTT), control cells; conditions: for Cell Proliferation Activity (% of control), T1: concentration not printed
Procedure: as §1

[3] = test system: endothelial cells (HUVEC); test: Growth inhibition of endothelial cells
Procedure: (§2) Typically, in an anti-proliferation assay, the suppression of growth in the presence of the compound to be tested is measured. For example, the above cells are incubated with the polypeptides of this invention for a suitable time and the decrease in the growth rate relative to a negative control, i.e., cells of the same cell line which have been incubated in media alone, is measured. Growth of the cell culture can be measured by any method acceptable to one of skill, including but not limited to, 3H-thymidine uptake, cell counting and tetrazolium dye uptake.
(§3) By SDS-PAGE, the bacterial product was smaller than the eukaryotic protein. Because prokaryotically expressed proteins are not glycosylated, the difference in molecular weights probably represents the presence of carbohydrate in the eukaryotic protein. Recombinant proteins were then tested in KS, endothelial and control cell lines. Activity was found only in KS cell lines and endothelial cells.

[4] = test system: KS cell lines; test: KS cell migration in transwell plates; conditions: KS cell lines
Procedure: The assays were done in double chamber wells separated by fibrinogen-coated membrane. Chemotaxis was induced by bFGF (25 ng/mL) in the lower chamber. Endothelial cells or KS cells (5×10^4/mL) were placed in the upper chamber in the presence and absence of test polypeptides. Taxol at 10 ng/mL was used as a known inhibitor of migration. Cell migration across the membrane was quantitated after an overnight incubation.
Angiogenesis is mediated by complex biochemical processes including degradation of the basement membrane under existing blood vessel endothelial cells, followed by proliferation and migration of endothelial cells, followed by formation of capillary loops, and recruitment of vascular smooth muscle cells to encase the newly formed vessels and provide stability. KS and endothelial cell migration in the presence of Saposin B was studied in transwell culture plates with 8 μm pore membranes (Costar, Cambridge, Mass.).
Briefly, wells were coated with fibronectin (25 μg/mL) overnight, and endothelial cells or KS cells were plated in the upper chamber with 100 μL of DMEM/0.4% FCS. 500 μL of DMEM/0.4% FCS was added to the lower chamber and incubated at 37° C. for one hour. The test polypeptides, at various concentrations, were added to the upper chamber, and chemotactic agents (VEGF or bFGF at 20 ng/mL) were added to the lower cell-culture chambers. The plates were incubated for 5 hr at 37° C. and the cells crossing the fibronectin-coated membrane were counted after wiping the cells off the membrane in the upper chamber with a cotton swab.
The cells that traversed the membrane were fixed with Diff-Quik stain according to the manufacturer's instruction (Dade Diagnostics Inc., Aguada, PR). The cells were counted under a microscope at 320× in four randomly selected fields. The experiments were done in duplicate and repeated at least three times.

[5] = test system: KS cell lines; test: Growth inhibition of KS cell lines by recombinant proteins; conditions: for growth inhibition / activity against KS cell lines: recombinant or naturally occurring protein
Procedure: as §2, §3

[6] = up to the highest concentration tested (50 μg/mL)

Molecule	Cell Proliferation Activity (% of control), KS Y-1 ([1]; KS Y-1, first value column)	Cell Proliferation Activity (% of control), KS Y-1 ([1]; KS Y-1)	Cell Proliferation Activity (% of control), T1 ([2]; T1, first value column)	Cell Proliferation Activity (% of control), T1 ([2]; T1, second value column)	other results
CQDCIQMV [SEQ ID NO:30]	77 % of control	35 % of control	92 % of control	84 % of control	–
DCIQMV [SEQ ID NO:23]	68 % of control	51 % of control	–	–	–
DVCQDC [SEQ ID NO:27]	60 % of control	22 % of control	88 % of control	75 % of control	–
DVCQDCI [SEQ ID NO:26]	72 % of control	40 % of control	96 % of control	81 % of control	–
DVCQDCIQ [SEQ ID NO:25]	72 % of control	39 % of control	98 % of control	89 % of control	–
DVCQDCIQM [SEQ ID NO:24]	68 % of control	46 % of control	96 % of control	84 % of control	–
DVCQDCIQMV [SEQ ID NO:21]	29 % of control	–	–	–	growth inhibition / activity against endothelial cells [3]: Only endothelial cells show dose dependent growth inhibition; Fibroblast Proliferation, % of Control ([2]; 1 μg/mL): 100.0 % of Control; Fibroblast Proliferation, % of Control ([2]; 50 μg/mL): 87.0 % of Control
GDVCQ [SEQ ID NO:22]	59 % of control	28 % of control	–	–	Fibroblast Proliferation, % of Control ([2]; 1 μg/mL): 95.7 % of Control; Fibroblast Proliferation, % of Control ([2]; 10 μg/mL): 95.7 % of Control; Fibroblast Proliferation, % of Control ([2]; 50 μg/mL): 87.0 % of Control
GDVCQDCIQMV [SEQ ID NO:19]	28 % of control	8 % of control	–	–	% Cells Migrating Through Membrane (of Control) ([4]; 1 μg/mL): 78.23%; % Cells Migrating Through Membrane (of Control) ([4]; 10 μg/mL): 40.32%; % Cells Migrating Through Membrane (of Control) ([4]; 50 μg/mL): 20.98%; Fibroblast Proliferation, % of Control ([2]; 1 μg/mL): 91.3 % of Control; Fibroblast Proliferation, % of Control ([2]; 10 μg/mL): 91.3 % of Control
GDVSQDSIQMV [SEQ ID NO:20]	93 % of control	84 % of control	–	–	Fibroblast Proliferation, % of Control ([2]; 10 μg/mL): 95.7 % of Control; Fibroblast Proliferation, % of Control ([2]; 50 μg/mL): 95.7 % of Control
QDCIQMV [SEQ ID NO:31, QDCIQMV]	74 % of control	–	87 % of control	80 % of control	–
VCQDCIQMV [SEQ ID NO:29]	65 % of control	33 % of control	95 % of control	86 % of control	–
B1	–	–	–	–	growth inhibition / activity against KS cell lines [5]: no activity; growth inhibition / activity against endothelial cells [3]: no activity
B2	–	–	–	–	activity against KS cell lines [5, 6]: no activity; activity against endothelial cells [3, 6]: no activity
B3	–	–	–	–	growth inhibition / activity against KS cell lines [5]: no activity; growth inhibition / activity against endothelial cells [3]: no activity
B4	–	–	–	–	growth inhibition / activity against KS cell lines [5]: no activity; growth inhibition / activity against endothelial cells [3]: no activity
